Experimental data published in US20140024638A1, “TREATMENT OF COGNITIVE DYSFUNCTION IN SCHIZOPHRENIA” (TARGACEPT, INC., priority 2011, published 2014).

Columns and labels:
[1] = test system: patients with schizophrenia; experiment: CogState International Shopping List (verbal learning), Phase 2 trial; design: species or system human; conditions: in vivo
Description: (§1) The double blind, placebo controlled Phase 2 trial was conducted at 7 sites in the United States and 12 sites in India. […] Of the randomized patients, approximately 69% were male and approximately 46% were users of tobacco products. […] The primary efficacy outcome measure was GMLT, and the trial included a number of other scales as secondary efficacy outcome measures.

[2] = in vivo; cited from earlier work
[3] = test system: patients with schizophrenia; experiment: CogState Schizophrenia Battery Composite score, Phase 2 trial; type: in vivo, human; conditions: for CogState Composite score: Mean (SE): tobacco users meeting data integrity criteria; for CogState Composite score: Mean (SEM): total population, subjects meeting data integrity criteria
Description: As provided in the above-referenced brochure, CogState is a provider of cognitive testing products and services that predominantly caters to the global pharmaceutical industry. The Schizophrenia Cognitive Test Battery covers all domains identified by MATRICS initiative; requires around 35 minutes for administration; is sensitive to the effects of novel compounds and licensed medication; is sensitive to the effects of medication in groups or individual patients; and the outcome measures are related to functional status.
as §1

[4] = test system: patients with schizophrenia; experiment: Phase 2 clinical proof of concept trial, overall efficacy; type: in vivo, human; conditions: Phase 2 trial
Description: as §1
The GMLT is a computerized test designed to assess executive function (the ability to organize cognitive processes, including the ability to plan, prioritize, stop and start activities, shift from one activity to another activity and to monitor one's own behavior). Impaired executive function is thought to be an important aspect of cognitive dysfunction in schizophrenia.

[5] = in vivo; cited from earlier work; remark: listed apart in the source
[6] = water solubility (salt screening); type: physicochemical
[7] = test system: patients with schizophrenia; experiment: CogState Detection task (psychomotor speed), Phase 2 trial; type: in vivo, human; conditions: for CogState Detection: Mean (SE): tobacco users meeting data integrity criteria; for CogState Detection: Mean (SEM): total population, subjects meeting data integrity criteria
Description: as §1

[8] = test system: patients with schizophrenia; experiment: Subject Global Impression - Cognition scale (SGI-Cog), Phase 2 trial; type: in vivo, human; conditions: for SGI-COGNITION TOTAL BY PATIENT: Adjusted Mean / SGI-COGNITION TOTAL BY PATIENT: Mean Difference ± SE between TC-5619 and Placebo (Placebo-TC5619): All Patients; for SGI-Cog: Mean (SE): tobacco users; for SGI-Cog: Mean (SEM): total population
Description: as §1

[9] = test system: patients with schizophrenia; experiment: Clinical Global Impression - Global Improvement (CGI-I, CGI Global Change), Phase 2 trial; type: in vivo, human; conditions: for CGI Global Change: Adjusted Mean / CGI Global Change: Mean Difference ± SE between TC-5619 and Placebo (Placebo-TC5619): All Patients; for CGI-I: Mean (SE): tobacco users; for CGI-I: Mean (SEM): total population
Description: as §1

[10] = test system: patients with schizophrenia; experiment: Scale for Assessment of Negative Symptoms (SANS), Phase 2 trial; type: in vivo, human; conditions: All Patients
Description: as §1

[11] = Week 8, 5 mg daily, 1-tailed p = 0.491

O=C(N[C@@H]1C2CCN(CC2)[C@H]1Cc1cccnc1)c1cc2ccccc2o1 (single isomer, unassigned) [TC-5619]
CogState International Shopping List (verbal learning), result in words [1]: statistically significant results of improvement | efficacy in preclinical models of schizophrenia [2]: effective | CogState composite score, result in words ([3]; in vivo): statistically significant results of improvement | CogState Composite score: Mean (SE) ([3]; Week 4, 1 mg daily, 1-tailed p = 0.471): 0.007 0.099); p = 0.471 | CogState Composite score: Mean (SE) ([3]; Week 8, 5 mg daily, 1-tailed p = 0.614): −0.029 (0.101); p = 0.614 | CogState Composite score: Mean (SE) ([3]; Week 12, 25 mg daily, 1-tailed p = 0.098): 0.129 0.100); p = 0.098 ^ | CogState Composite score: Mean (SEM) ([3]; Week 4, 1 mg daily, 1-tailed p = 0.838): −0.066 (0.066); p = 0.838 | CogState Composite score: Mean (SEM) ([3]; Week 8, 5 mg daily, 1-tailed p = 0.821): −0.062 .068); p = 0.821^ | CogState Composite score: Mean (SEM) ([3]; Week 12, 25 mg daily, 1-tailed p = 0.326): 0.030 0.067); p = 0.326 ^ | efficacy by tobacco use [4]: showed efficacy primarily in tobacco users | efficacy in Cognitive Deficits in Schizophrenia (GMLT, SANS, CGI-Global, SGI-Cog, CogState objective cognitive endpoints) ([4]; add-on to quetiapine or risperidone, 12 weeks, 1/5/25 mg daily): positive efficacy | efficacy in preclinical models of memory [5]: had efficacy | water solubility [6]: very limited | CogState detection (psychomotor speed), result in words ([7]; in vivo): statistically significant results of improvement | CogState Detection: Mean (SE) ([7]; Week 4, 1 mg daily, 1-tailed p = 0.254): −0.014 (0.021); p = 0.254 | CogState Detection: Mean (SE) [7, 11]: −0.000 (0.021); p = 0.491 | CogState Detection: Mean (SE) ([7]; Week 12, 25 mg daily, 1-tailed p = 0.265): −0.013 0.021); p = 0.265 ^ | CogState Detection: Mean (SEM) ([7]; Week 4, 1 mg daily, 1-tailed p = 0.693): 0.007 (0.015); p = 0.693 | CogState Detection: Mean (SEM) ([7]; Week 8, 5 mg daily, 1-tailed p = 0.650): 0.006 (0.014) p = 0.650^ | CogState Detection: Mean (SEM) ([7]; Week 12, 25 mg daily, 1-tailed p = 0.567): 0.002 (0.015) p = 0.567^ | SGI-COGNITION TOTAL BY PATIENT: Adjusted Mean ([8]; Week 1, 1 mg daily, SE 0.19, placebo 11.37): 11.18 | SGI-COGNITION TOTAL BY PATIENT: Mean Difference ± SE between TC-5619 and Placebo (Placebo-TC5619) ([8]; Week 1, 1 mg daily, one-sided 90% CI (−0.07, ∞), one-sided P 0.1757): 0.19 ± 0.20 | SGI-COGNITION TOTAL BY PATIENT: Adjusted Mean ([8]; Week 4, 1 mg daily, SE 0.24, placebo 10.65): 10.60 | SGI-COGNITION TOTAL BY PATIENT: Mean Difference ± SE between TC-5619 and Placebo (Placebo-TC5619) ([8]; Week 4, 1 mg daily, one-sided 90% CI (−0.31, ∞), one-sided P 0.4282): 0.05 ± 0.28 | SGI-COGNITION TOTAL BY PATIENT: Adjusted Mean ([8]; Week 8, 5 mg daily, SE 0.29, placebo 9.80): 9.79 | SGI-COGNITION TOTAL BY PATIENT: Mean Difference ± SE between TC-5619 and Placebo (Placebo-TC5619) ([8]; Week 8, 5 mg daily, one-sided 90% CI (−0.45, ∞), one-sided P 0.4914): 0.01 ± 0.36 | SGI-COGNITION TOTAL BY PATIENT: Adjusted Mean ([8]; Week 12, 25 mg daily, SE 0.31, placebo 9.61): 8.95 | SGI-COGNITION TOTAL BY PATIENT: Mean Difference ± SE between TC-5619 and Placebo (Placebo-TC5619) ([8]; Week 12, 25 mg daily, one-sided 90% CI (−0.16, ∞), one-sided P 0.0455): 0.66 ± 0.39 | Subject Global Impression - Cognition scale, result in words ([8]; secondary outcome measure, patient self-assessment of cognitive change): encouraging efficacy signals | SGI-Cog: Mean (SE) ([8]; Week 4, 1 mg daily, 1-tailed p = 0.606): −0.13 (0.47); p = 0.606 | SGI-Cog: Mean (SE) ([8]; Week 8, 5 mg daily, 1-tailed p = 0.314): 0.24 (0.49); p = 0.314 | SGI-Cog: Mean (SE) ([8]; Week 12, 25 mg daily, 1-tailed p = 0.109): 0.65 (0.52); p = 0.109 | SGI-Cog: Mean (SEM) ([8]; Week 4, 1 mg daily, 1-tailed p = 0.428): 0.05 (0.28); p = 0.428 | SGI-Cog: Mean (SEM) [8, 11]: 0.01 (0.36); p = 0.491 | SGI-Cog: Mean (SEM) ([8]; Week 12, 25 mg daily, 1-tailed p = 0.046): 0.66 (0.39); p = 0.046 | CGI Global Change: Adjusted Mean ([9]; Week 1, 1 mg daily, SE 0.15, placebo 3.80): 3.77 | CGI Global Change: Mean Difference ± SE between TC-5619 and Placebo (Placebo-TC5619) ([9]; Week 1, 1 mg daily, one-sided 90% CI (−0.06, ∞), one-sided P 0.3434): 0.03 ± 0.07 | CGI Global Change: Adjusted Mean ([9]; Week 4, 1 mg daily, SE 0.16, placebo 3.64): 3.49 | CGI Global Change: Mean Difference ± SE between TC-5619 and Placebo (Placebo-TC5619) ([9]; Week 4, 1 mg daily, one-sided 90% CI (0.04, ∞), one-sided P 0.0485): 0.15 ± 0.09 | CGI Global Change: Adjusted Mean ([9]; Week 8, 5 mg daily, SE 0.16, placebo 3.30): 3.22 | CGI Global Change: Mean Difference ± SE between TC-5619 and Placebo (Placebo-TC5619) ([9]; Week 8, 5 mg daily, one-sided 90% CI (−0.07, ∞), one-sided P 0.2533): 0.08 ± 0.12 | CGI Global Change: Adjusted Mean ([9]; Week 12, 25 mg daily, SE 0.17, placebo 3.18): 3.03 | CGI Global Change: Mean Difference ± SE between TC-5619 and Placebo (Placebo-TC5619) ([9]; Week 12, 25 mg daily, one-sided 90% CI (−0.03, ∞), one-sided P 0.1502): 0.15 ± 0.14 | Clinical Global Impression - Global Improvement, result in words ([9]; secondary outcome measure, investigator assessment of overall response): encouraging efficacy signals | CGI-I: Mean (SE) ([9]; Week 4, 1 mg daily, 1-tailed p = 0.047): 0.25 (0.14); p = 0.047 | CGI-I: Mean (SE) ([9]; Week 8, 5 mg daily, 1-tailed p = 0.075): 0.24 (0.16); p = 0.075 | CGI-I: Mean (SE) ([9]; Week 12, 25 mg daily, 1-tailed p = 0.189): 0.18 (0.20); p = 0.189 | CGI-I: Mean (SEM) ([9]; Week 4, 1 mg daily, 1-tailed p = 0.049): 0.15 (0.09); p = 0.049 | CGI-I: Mean (SEM) ([9]; Week 8, 5 mg daily, 1-tailed p = 0.253): 0.08 (0.12); p = 0.253 | CGI-I: Mean (SEM) ([9]; Week 12, 25 mg daily, 1-tailed p = 0.150): 0.15 (0.14); p = 0.150 | SANS TOTAL SCORE: Adjusted Mean ([10]; Week 1, 1 mg daily, SE 0.93, placebo −0.92): −1.20 | SANS TOTAL SCORE: Mean Difference ± SE between TC-5619 and Placebo (Placebo-TC5619) ([10]; Week 1, 1 mg daily, one-sided 90% CI (−0.77, ∞), one-sided P 0.3647): 0.28 ± 0.82 | SANS TOTAL SCORE: Adjusted Mean ([10]; Week 4, 1 mg daily, SE 1.11, placebo −2.74): −3.52 | SANS TOTAL SCORE: Mean Difference ± SE between TC-5619 and Placebo (Placebo-TC5619) ([10]; Week 4, 1 mg daily, one-sided 90% CI (−0.74, ∞), one-sided P 0.2547): 0.78 ± 1.18
